Data from US20140171417A1, “TRICYCLIC COMPOUNDS” (NOVARTIS AG, priority 2012, published 2014).

Target: T1, CFTR (Homo sapiens, UniProt P13569)
T1 construct: expressed in transfected cells
Assay: IonWorks Quattro assay (CFTR Inhibitor Assay), whole-cell planar patch clamp
Assay type: cell-based
Conditions: inward current (−100 mV); CHO cells stably expressing WT-CFTR; CFTR activated by 10 μM forskolin; test compound incubated 10 min
From the text: CFTR activity can be quantified by electrophysiology methods, using the whole-cell configuration of the patch clamp technique (Hamill O, Marty A, Neher E, Sakmann B and Sigworth F. ‘Improved patch-clamp techniques for high resolution current recording from cells and cell-free membrane patches.’ Pflugers Archive 1981 391: 85-100). This assay directly measures the currents associated with chloride flow through CFTR channels whilst either maintaining or adjusting the transmembrane voltage. This assay can use either single glass micropipettes or parallel planar arrays to measure CFTR activity from native or recombinant cell systems. Currents measured using parallel planar arrays can be quantified using an appropriately equipped instrument such as the IonWorks Quattro (Molecular Devices Corporation, Sunnyvale, Calif.). The Quattro system can measure CFTR currents from either a single cell per recording well (HT configuration) or alternatively from a population of 64 cells per well (Population Patch Clamp PPC) (Finkel A, Wittel A, Yang N, Handran S, Hughes J, Costantin J. ‘Population patch clamp improves data consistency and success rates in the measurement of ionic currents.’ J Biomol Screen. 2006 August; 11 (5):488-96).
Chinese hamster ovary (CHO) cells stably expressing WT-CFTR channels were used for the IonWorks Quattro experiments. Cells were maintained at 37° C. in 5% v/v CO2 at 100% humidity in MEM alpha medium supplemented with 10% (v/v) FCS, 100 U/mL Penicillin/Streptomycin, and 100 μg/L methotrexate. For experiments, cells were grown in 225 cm^2 tissue culture flasks until almost confluent. Cells were removed from the flask using trypsin-EDTA and resuspended in extracellular recording solution for immediate experimentation.
Cells, at a density of 1.5-2 million per mL, were placed on the Quattro system, added to the planar patch plate and seals allowed to establish for 5-10 mins. After assessing seal resistances (typically >50 MΩ), whole-cell access was obtained by perforation with 100 μg/mL amphotericin B. Baseline currents were measured by a pre-compound scan obtained by application of a voltage ramp from −100 to +100 mV. CFTR was activated by the addition of 10 μM forskolin to each of the 384 wells of the patch plate. After 5 min incubation the post-compound 1 currents were measured, again by application of a voltage ramp from −100 to +100 mV. Test compounds, diluted from 10 mM stocks in DMSO in extracellular solution were then added to the patch plate and were incubated for a further 10 min. The post-compound 2 currents were measured by the application of the same voltage ramp from −100 to +100 mV. The inhibition of CFTR was determined from the difference in current between the forskolin addition (post-compound 1) and the test compound (post-compound 2). This was determined at both −100 mV and +100 mV which represents the inward and outward current respectively.
Extracellular solution (ECS): 145 mM NaCl, 4 mM CsCl, 5 mM D-glucose, 10 mM TES, 1 mM CaCl2, 1 mM MgCl2, pH 7.4 NaOH
Intracellular solution (ICS): 113 mM L-Aspartic acid, 113 mM CsOH, 27 mM CsCl, 1 mM NaCl, 1 mM MgCl2, 1 mM EGTA, 10 mM TES. pH 7.2 with CsOH. Filter sterilized before use.

T1 sequence (P13569 whole entry): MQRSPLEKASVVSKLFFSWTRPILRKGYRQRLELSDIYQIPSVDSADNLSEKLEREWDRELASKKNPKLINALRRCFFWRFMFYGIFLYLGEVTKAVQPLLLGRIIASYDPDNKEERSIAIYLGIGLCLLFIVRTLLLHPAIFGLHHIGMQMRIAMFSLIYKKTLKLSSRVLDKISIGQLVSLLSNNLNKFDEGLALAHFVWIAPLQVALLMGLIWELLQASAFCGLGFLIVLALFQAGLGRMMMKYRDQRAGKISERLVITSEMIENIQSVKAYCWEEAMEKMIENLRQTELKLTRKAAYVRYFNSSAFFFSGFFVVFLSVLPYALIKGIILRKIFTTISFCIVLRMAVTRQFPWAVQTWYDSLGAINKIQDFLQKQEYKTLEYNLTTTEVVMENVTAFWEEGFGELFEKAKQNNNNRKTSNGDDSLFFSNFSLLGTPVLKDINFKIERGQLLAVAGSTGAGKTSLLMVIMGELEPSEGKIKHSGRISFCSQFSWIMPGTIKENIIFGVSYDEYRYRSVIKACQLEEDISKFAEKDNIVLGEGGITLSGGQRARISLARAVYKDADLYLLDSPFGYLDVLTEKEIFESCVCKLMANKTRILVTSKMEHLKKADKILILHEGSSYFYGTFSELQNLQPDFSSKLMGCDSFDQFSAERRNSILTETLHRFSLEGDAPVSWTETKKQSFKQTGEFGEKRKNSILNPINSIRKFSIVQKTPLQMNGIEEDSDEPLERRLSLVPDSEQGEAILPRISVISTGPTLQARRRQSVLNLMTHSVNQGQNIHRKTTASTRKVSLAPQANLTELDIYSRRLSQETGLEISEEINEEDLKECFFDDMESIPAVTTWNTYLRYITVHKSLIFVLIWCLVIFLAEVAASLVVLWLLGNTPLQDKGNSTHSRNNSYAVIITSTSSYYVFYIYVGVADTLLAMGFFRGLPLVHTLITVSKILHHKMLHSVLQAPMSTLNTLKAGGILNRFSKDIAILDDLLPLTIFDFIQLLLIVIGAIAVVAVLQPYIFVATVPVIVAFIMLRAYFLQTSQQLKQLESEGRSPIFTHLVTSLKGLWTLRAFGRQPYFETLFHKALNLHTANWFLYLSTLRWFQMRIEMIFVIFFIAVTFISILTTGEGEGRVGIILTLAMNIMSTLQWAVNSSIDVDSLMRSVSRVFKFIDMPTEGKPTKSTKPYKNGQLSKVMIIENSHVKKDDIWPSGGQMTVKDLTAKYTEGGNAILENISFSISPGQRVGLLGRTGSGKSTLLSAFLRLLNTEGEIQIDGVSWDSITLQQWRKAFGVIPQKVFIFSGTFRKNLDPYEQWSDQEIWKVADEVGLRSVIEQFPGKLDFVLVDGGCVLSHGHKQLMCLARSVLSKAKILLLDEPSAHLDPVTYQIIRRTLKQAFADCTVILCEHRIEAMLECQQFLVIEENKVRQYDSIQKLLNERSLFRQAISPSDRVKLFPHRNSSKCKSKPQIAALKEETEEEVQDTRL

Compound | IC50 [µM]
Cn1c(=O)c2c(-c3cccc(C#N)c3)n3c(c2n(C)c1=O)C(c1ccc(Cl)o1)SCC3 (single isomer, unassigned) [Example 3.5, 3-(10-(5-chlorofuran-2-yl)-1,3-dimethyl-2,4-dioxo-2,3,4,7,8,10-hexahydro-1H-pyrimido[4′,5′:3,4]pyrrolo[2,1-c][1,4]thiazin-5-yl)benzonitrile] | 0.16
CCn1c(=O)c2c(-c3ccccc3)n3c(c2n(CC)c1=O)C(c1ccc(Cl)o1)SCC3 (single isomer, unassigned) [Example 4.2, 10-(5-Chlorofuran-2-yl)-1,3-diethyl-5-phenyl-7,8-dihydro-1H-pyrimido[4′,5′:3,4]pyrrolo[2,1-c][1,4]thiazine-2,4(3H,10H)-dione] | 1.67
Cc1ccc([C@@H]2C[C@H](C)Cn3c(-c4cccc(F)c4)c4c(=O)n(C)c(=O)n(C)c4c32)o1 (single isomer, unassigned) [Example 7.5b, 5-(3-fluorophenyl)-1,3,8-trimethyl-10-(5-methylfuran-2-yl)-7,8,9,10-tetrahydropyrimido[4,5-a]indolizine-2,4(1H,3H)-dione] | 2.18
Cc1cccc(-c2c3c(=O)n(C)c(=O)n(C)c3c3n2CCCC3c2nc(C)cs2)c1 (single isomer, unassigned) [Example 8.2, 1,3-dimethyl-10-(4-methylthiazol-2-yl)-5-m-tolyl-7,8,9,10-tetrahydropyrimido[4,5-a]indolizine-2,4(1H,3H)-dione] | 0.29
Cc1csc(C2CCCn3c(-c4cccc(C#N)c4)c4c(=O)n(C)c(=O)n(C)c4c32)n1 (single isomer, unassigned) [Example 9.1, 3-(1,3-dimethyl-10-(4-methylthiazol-2-yl)-2,4-dioxo-1,2,3,4,7,8,9,10-octahydropyrimido[4,5-a]indolizin-5-yl)benzonitrile] | 0.29
Cn1c(=O)c2c(-c3cccc(F)c3)n3c(c2n(C)c1=O)[C@H](c1ccc(Cl)o1)S[C@@H](CO)C3 (single isomer, unassigned) [Example 12.1b, 10-(5-chlorofuran-2-yl)-5-(3-fluorophenyl)-8-(hydroxymethyl)-1,3-dimethyl-7,8-dihydro-1H-pyrimido[4′,5′:3,4]pyrrolo[2,1-c][1,4]thiazine-2,4(3H,10H)-dione] | 0.18
Cn1c(=O)c2c(-c3ccccc3)n3c(c2n(C)c1=O)C(c1ccc(Cl)o1)SC(CO)C3 (single isomer, unassigned) [Example 12.a, 10-(5-chlorofuran-2-yl)-8-(hydroxymethyl)-1,3-dimethyl-5-phenyl-7,8-dihydro-1H-pyrimido[4′,5′:3,4]pyrrolo[2,1-c][1,4]thiazine-2,4(3H,10H)-dione] | 0.2
Cn1c(=O)c2c(-c3ccccc3)n3c(c2n(C)c1=O)C(c1ccc(Cl)o1)SC(CO)C3 (single isomer, unassigned) [Example 12.b, 10-(5-chlorofuran-2-yl)-8-(hydroxymethyl)-1,3-dimethyl-5-phenyl-7,8-dihydro-1H-pyrimido[4′,5′:3,4]pyrrolo[2,1-c][1,4]thiazine-2,4(3H,10H)-dione] | 0.54
Cn1c(=O)c2c(-c3nc(CO)cs3)n3c(c2n(C)c1=O)C(c1nc(Cl)cs1)CCC3 (single isomer, unassigned) [Example 13.1a, 10-(4-chlorothiazol-2-yl)-5-(4-(hydroxymethyl)thiazol-2-yl)-1,3-dimethyl-7,8,9,10-tetrahydropyrimido[4,5-a]indolizine-2,4(1H,3H)-dione] | 0.1
Cc1nc(-c2c3c(=O)n(C)c(=O)n(C)c3c3n2CCC[C@H]3c2nc(Cl)cs2)cs1 (single isomer, unassigned) [Example 13.3a, 10-(4-chlorothiazol-2-yl)-1,3-dimethyl-5-(2-methylthiazol-4-yl)-7,8,9,10-tetrahydropyrimido[4,5-a]indolizine-2,4(1H,3H)-dione] | 0.09
